# Reference: patent US12616759B2, “Uses of labeled HSP90 inhibitors” (Sloan-Kettering Institute for Cancer Research, priority 2011, dated 2026)
# Like-named read-outs stand apart in the source and are kept apart here.
# Tests used:
# [1] = tested on: HSP90; assay: fluorescence polarization HSP90 binding assay using SKBr3 cancer cell lysate
# [2] = target: 359 kinases; assay: scanMAX kinase screen (Ambit); format: binding; conditions: 10 μM
# [3] = tested on: MO-91 tumors; assay: pharmacodynamic study in MO-91 xenografted tumors; format: in vivo, mice; conditions: post-administration of one dose
# Method: Pharmacodynamic Study: Four- to 6-week-old nu/nu athymic female mice were obtained from Taconic Farms. Experiments were carried out under an Institutional Animal Care and Use Committee-approved protocol, and institutional guidelines for the proper and humane use of animals in research were followed. HEL and MO-91 cells were subcutaneously implanted in the right flank of mice using a 20-gauge needle and allowed to grow. Before administration, a solution of PU-H71-HCl was formulated in sterile PBS. For this assay, tumors were allowed to reach 6-8 mm in diameter before treatment. […] Tumors were homogenized and proteins analyzed by western blot as described above.
# [4] = tested on: HSP90; format: binding
# [5] = tested on: circulating tumor cells; assay: number of circulating tumor cells in blood of patient after PU-H71; format: in vivo, human; conditions: 24 h after 20 mg/m2
# Excerpt: Circulating tumor cells (CTCs) are cells that have detached from a primary tumor and circulate in the bloodstream. CTCs may constitute seeds for subsequent growth of additional tumors (metastasis) in different tissues.
# [6] = PU-H71 tumor concentration by LC-MS/MS; format: in vivo, mice; conditions: mouse, tumor (MDA-MB-468), read-out: actual tumor concentration by LC-MS/MS; for concentration at 24 h: 24 h after last dose
# Excerpt: LC-MS/MS analyses. […] Samples were reconstituted in mobile phase.
# [7] = tested on: caspase-3,7; assay: caspase 3,7 activation assay; format: cell-based
# Method: Caspase 3,7 Activation Assay: Cells were plated and treated as described in the growth inhibition assay section. Following a 24 h or 48 h exposure of cells to Hsp90 inhibitors, 100 μL buffer containing 10 mM Hepes, pH 7.5, 2 mM EDTA, 0.1% CHAPS, 0.1 mg/mL PMSF, Complete Protease Inhibitor mix (#1697498; Roche), and the caspase substrate Z-DEVD-R110 (#R22120; Molecular Probes) at 25 μM was added to each well. Plates were placed on an orbital shaker to promote cell lysis and reaction. The fluorescence signal of each well was measured in an Analyst GT (Molecular Dev ices) microplate reader (excitation 485 nm; emission at 530 nm). The percentage increase in caspase-3,7 activity was calculated by comparison of the fluorescence reading obtained from treated versus control cells. All experimental data were analyzed using SOFTmax Pro 4.3.1 and plotted using Prism 4.0 (Graphpad Software Inc., San Diego, CA).
# [8] = tested on: AML cell lines; assay: apoptosis in AML cell lines, acridine orange/ethidium bromide; format: cell-based, human
# Method: Apoptosis Assay: Cells were treated for 24, 48 or 72 h with vehicle (DMSO) or inhibitors as indicated. Following staining with Acridine Orange and Ethidium Bromide (1:1 mix of 100 µg/ml), cells were visualized with a fluorescent microscope (Zeiss Axiovert 40 CFL) and counted. Percentage of apoptotic cells was determined from 200-300 cells counted in each group. The percentage of apoptotic cells was calculated as: % Apoptotic cells=(total number of cells with apoptotic nuclei/total number of cells counted)×100.
# [9] = tested on: Akt, onco-proteins in MDA-MB-468 tumors; assay: pharmacodynamic Western blot of MDA-MB-468 tumors; format: in vivo, mice
# Method: Pharmacodynamic analyses. For protein analysis, tumors were homogenized in SDS lysis buffer (50 mM Tris, pH 7.4, 2% SDS) and subjected to Western blot analysis. Protein concentrations were determined using the BCA kit (Pierce) according to the manufacturer's instructions. Protein lysates (20-100 μg) were electrophoretically resolved by SDS/PAGE, transferred to nitrocellulose membrane, and probed with the indicated primary antibodies: Anti-Hsp90 from mouse (1:500, SPA-830; Stressgen), anti-Akt from rabbit (1:500, 9272; Cell Signaling), anti-phospho-Akt (Ser 473) from rabbit (1:500, 9271S; Cell Signaling), anti-PARP (p85 fragment) from rabbit (1:250, G7341; Promega). Membranes were then incubated with a 1:5,000 dilution of a peroxidase-conjugated corresponding secondary antibody. Equal loading of the protein samples was confirmed by parallel Western blots for β-actin (1:5,000, ab8227-50; Abcam). Detection was performed using the ECL Enhanced Chemiluminescence Detection System (Amersham Biosciences) according to the manufacturer's instructions.
structure (smiles),measurement,setting,value
CC(C)NCCCn1c(Sc2cc3c(cc2I)OCO3)nc2c(N)ncnc21 [PU-H71],EC50,[1]; fluorescence polarization,[…]
same,kinase hits,[2],Only SNARK (NUAK family SNF1-like kinase 2) (red dot on the kinase tree) appears as a potential low affinity kinase hit
same,fraction of total cellular HSP90 bound,[4],approximately 30%
same,drop in the number of CTCs in the blood,[5],6 fold
same,concentration at 24 h,[6]; 5 mg/kg 3×week,0.52 ± 0.13 µM
same,concentration at 24 h,[6]; 75 mg/kg 1×week,5.53 ± 0.26 µM
same,concentration at 96 h,"[6]; 75 mg/kg 1×week, 96 h after last dose",3.09 ± 1.4 µM
same,"increase in caspase-3,7 activation","[7]; Kasumi-1 and SKNO-1, 24 h",two-fold
same,"increase in caspase-3,7 activation","[7]; MOLM-13 and MO-91, 24 h",ten-fold
same,cells undergoing apoptosis,"[8]; HEL, 72 h",30%
same,cells undergoing apoptosis,"[8]; MOLM-13 and MO-91, 72 h",~100%
same,cells undergoing apoptosis,"[8]; SKNO-1 and Kasumi-1, 72 h",50-60%
same,"Akt degradation, decrease","[9]; 5 mg/kg 3×week, 24 h after last dose",57%
same,"depletion of onco-proteins, level decrease","[9]; 1×week schedule, 24 h and 96 h after last dose",95%
